Source: patent US10351587B2, “Method of making and using 7α, 11β-dimethyl-17β-hydroxyestr-4-en-3-one 17-undecanoate” (The United States of America, as represented by the …, priority 2000, dated 2019)
Where “and” joins values, the source holds several entries; their conditions need not be identical. Equal entries are not always repeated. Entries after “also recorded” stand apart in the source; their conditions may differ.

How the values were obtained:
[1] = test system: castrate Sprague-Dawley rats; experiment: Duration of activity after a single subcutaneous injection (ventral prostate weight over weeks, AUC); type: in vivo; conditions: for Long-term androgenic activity (ventral prostate weight over time), in words / AUC of ventral prostate weight (FIG. 5) / AUC of ventral prostate weight (FIG. 15): single subcutaneous injection; for AUC of ventral prostate weight (FIG. 5): n=5
Procedure: Immature (about 21-day-old) Sprague-Dawley rats were orchidectomized under anesthesia, and randomly assignee to groups of ten animals for each dose level of the active undergoing testing. Each active was administered by subcutaneous injection each day for seven days beginning on the date of the orchidectomy. The animals were sacrificed 24 hours after the last dose, and the ventral prostate and seminal vesicles were excised, cleaned of fat and connective tissue, blotted on moist filter paper and weighed to the nearest 0.1 mg. Regression analysis was performed by conventional methods using a PROPHET data management system. Ventral prostate weight was used as the endpoint because it is the sensitive organ to androgenic stimulation.
Except for testosterone enanthate, each active was formulated in two different carriers: (1) an aqueous suspension and (2) in sesame oil. Testosterone enanthate was formulated using the sesame oil carrier only, because it exists as a liquid at room temperature and could not therefore be formulated as an aqueous suspension.
(§1) The carrier used to provide the aqueous suspension was formulated as follows: 1 g benzyl alcohol, 0.5 g sodium carboxylethyl cellulose 50, 0.376 g disodium hydrogen phosphate dihydrate, 1.495 g sodium dihydrogen phosphate dihydrate, with water for injection (WFI) being added to bring volume of the carrier up to 100 ml.
Each formulation was prepared at a concentration of 0.6 mg/0.2 ml.
(§2) Immature (about 21-day-old) Sprague-Dawley rats were orchidectomized under anesthesia, and randomly assignee to groups of 40 or more. Animals received a single subcutaneous injection of 0.6 mg of each ester in 0.2 ml of an aqueous suspending carrier and/or oily carrier (10% ethanol/90% sesame oil or ethyl oleate) on the date of the orchidectomy. In cases where the ester was not solid at room temperature, 10% ethanol/sesame oil or ethyl oleate was used as the carrier. In this example, the carrier used to provide the aqueous suspension was formulated as follows: 1 g benzyl alcohol, 0.5 g sodium carboxylethyl cellulose 50, 0.376 g disodium hydrogen phosphate dihydrate, 1.495 g sodium dihydrogen phosphate dihydrate, with water for injection (WFI) being added to bring volume of the carrier up to 100 ml.
Five animals from each group were sacrificed at weekly or biweekly intervals, and the ventral prostate and seminal vesicles were excised, cleaned of fat and connective tissue, blotted on moist filter paper and weighed to the nearest 0.1 mg.
Ventral prostate weight was used as the endpoint because it is the sensitive organ to androgenic stimulation. Regression analysis was performed by conventional methods using the PROPHET data management system previously identified.
Immature (about 21-day-old) Sprague-Dawley rats were orchidectomized under anesthesia, and randomly assignee to groups of 40 or more. Animals received a single subcutaneous injection of 0.6 mg of the undecanoate in 0.2 ml of an aqueous suspending carrier and/or oily carrier (10% ethanol/90% sesame oil containing 5 mg/ml chlorobutanol as a preservative, or ethyloleate) on the date of the orchidectomy. The enanthate ester was formulated using the 10% ethanol/sesame oil or ethyloleate carrier as a first standard, with the 10% ethanol/sesame oil carrier used as a second standard.
as §1, with “In this example, the” for “The”

[2] = test system: castrate Sprague-Dawley rats; experiment: Hershberger test, subcutaneous administration for seven days (ventral prostate weight); type: in vivo; conditions: for Androgenic Potency of Corresponding Alcohol: ventral prostate weight assay following subcutaneous administration, alcohol of G = 1.0 (assigned), value is for the free alcohol of the listed ester; for Androgenic activity Potency Ratio, subcutaneous: subcutaneous daily for 7 days in 10% EtOH/sesame oil, testosterone subcutaneous standard = 1.0 (assigned), ventral prostate weight
Procedure: (§3) Immature (about 21-day-old) Sprague-Dawley rats were orchidectomized under anesthesia, and randomly assignee to groups of ten animals for each dose level of the active undergoing testing. Each active was dissolved in 10% ethanol/sesame oil and administered by gavage (oral) or subcutaneous injection each day for seven days beginning on the date of the orchidectomy. The animals were sacrificed 24 hours after the last dose, and the ventral prostate and seminal vesicles were excised, cleaned of fat and connective tissue, blotted on moist filter paper and weighed to the nearest 0.1 mg. Regression analysis was performed by conventional methods using a PROPHET data management system. Ventral prostate weight was used as the endpoint because it is the sensitive organ to androgenic stimulation.
as §3, with “by” for “by gavage (oral) or”, “mg. See, e.g., Hershberger, L. et al, Myotrophic Activity of 19-nortestosterone And Other Steroids Determined By Modified Levator And Muscle Method, Proc. Soc. Exptl. Biol. Med. 83 175-180 (1953).” for “mg.”, “system. See, e.g., Bliss, C., The Statistics of Bioassay (Academic Press, New York, 1952); Hollister, C., Nucleic Acids Res. 16 1873-75 (1988).” for “system.”

[3] = Serum levels of the free alcohol after a single subcutaneous injection; type: in vivo, Sprague-Dawley rats; conditions: single subcutaneous injection 0.6 mg in aqueous carrier, 10-week observation period
Procedure: as §2

[4] = test system: castrate Sprague-Dawley rats; experiment: Hershberger test, oral administration for seven days (ventral prostate weight); type: in vivo
Procedure: as §3, with “(oral)” for “(oral) or subcutaneous injection”, “mg. See, e.g., Hershberger, L. et al, Myotrophic Activity of 19-nortestosterone And Other Steroids Determined By Modified Levator And Muscle Method, Proc. Soc. Exptl. Biol. Med. 83 175-180 (1953).” for “mg.”, “See, e.g., Bliss, C., The Statistics of Bioassay (Academic Press, New York, 1952); Hollister, C., Nucleic Acids Res. 16 1873-75 (1988). […]” for “Ventral prostate weight was used as the endpoint because it is the sensitive organ to androgenic stimulation.”
Immature (about 21-day-old) Sprague-Dawley rats were orchidectomized under anesthesia, and randomly assignee to groups of ten animals for each dose level of the active undergoing testing. […] See, e.g., Hershberger, L. et al, Myotrophic Activity of 19-nortestosterone And Other Steroids Determined By Modified Levator And Muscle Method, Proc. Soc. […]

[5] = 0.6 mg, ASV (aqueous suspending vehicle)

| SMILES | Long-term androgenic activity (ventral prostate weight over time), in words [1] | AUC of ventral prostate weight (FIG. 5) ([1]; 0.6 mg, S.O. (sesame oil)) | Androgenic Potency of Corresponding Alcohol [2] | further results |
| --- | --- | --- | --- | --- |
| CCCC[C@H]1CC[C@H](C(=O)O[C@H]2CC[C@H]3[C@H]4[C@H]([C@@H](C)C[C@]23C)[C@H]2CCC(=O)C=C2C[C@H]4C)CC1 (relative stereo) [CDB-4386A, 7α,11β-Dimethyl-17β-hydroxy-4-estren-3-one 17β-trans-4-n-butylcyclohexane carboxylate] | most dramatic increase and maintenance of ventral prostate weight; also recorded: greatest AUC over the 10-week period | 157 | 19.3 | AUC of ventral prostate weight (FIG. 5) [1, 5]: 1390; Serum levels of the free alcohol (7α,11β-dimethyl-19-nortestosterone) [3]: highest levels of the free alcohol |
| CCCCCCC(=O)O[C@H]1CC[C@H]2[C@@H]3CCC4=CC(=O)CC[C@]4(C)[C@H]3CC[C@]12C [CDB-112E, testosterone enanthate] | – | 497 | – | AUC of ventral prostate weight (FIG. 15) ([1]; 0.6 mg, 10% EtOH/Sesame Oil, 10 week period, listed as CDB-112F): 559 mg-weeks and 559.28 mg-weeks |
| CCCC[C@H]1CC[C@H](C(=O)O[C@H]2CC=C3[C@@H]4[C@H](C)CC5=CC(=O)CC[C@]5(C)[C@H]4CC[C@@]32C)CC1 [C, 7α-Methyl-14-dehydro-testosterone-17β-bucyclate] | – | – | 61.1 | – |
| CCCCCCCCCCC(=O)O[C@H]1CC[C@H]2[C@H]3[C@H]([C@@H](C)C[C@]12C)[C@H]1CCC(=O)C=C1C[C@H]3C [7α,11β-dimethyl-17β-hydroxyestr-4-en-3-one 17-undecanoate] | – | – | – | Androgenic activity Potency Ratio, oral ([4]; oral gavage daily for 7 days in 10% EtOH/sesame oil, methyltestosterone oral standard = 1.0 (assigned), ventral prostate weight): about twice that of methyltestosterone |
| CCCCC1CCC(C(=O)O[C@H]2CC[C@H]3[C@H]4[C@H]([C@H](C)C[C@]23C)[C@H]2CCC(=O)C=C2C[C@H]4C)CC1 (stereo partly drawn) [CDB-4386] | inactive; also recorded: relatively low activity | – | – | – |
| CCCCCCCCCCC(=O)O[C@H]1CC[C@H]2[C@H]3[C@H]([C@@H](C)C[C@]12C)[C@H]1CCC(=O)C=C1C[C@H]3C [CDB-4521A, 7α,11β-dimethyl-17β-hydroxyestr-4-en-3-one 17-undecanoate] | most dramatic increase and maintenance of ventral prostate weight | – | – | AUC of ventral prostate weight relative to testosterone enanthate in sesame oil ([1]; single subcutaneous injection 0.6 mg, active in aqueous vehicle, 10 week period): about 3 times; AUC of ventral prostate weight (FIG. 15) ([1]; 0.6 mg, 10% EtOH/Sesame Oil, 10 week period): 620 mg-weeks; AUC of ventral prostate weight (FIG. 15) ([1]; 0.6 mg, Aqueous Suspending Vehicle, 10 week period): 1817 mg-weeks; Androgenic activity Potency Ratio, subcutaneous [2]: 0.52; Androgenic activity Potency Ratio, oral, aqueous suspending vehicle ([4]; oral gavage daily for 7 days in aqueous suspending vehicle (ASV), methyltestosterone in same vehicle = 1.0 (assigned)): 0.95 |
| CCCC[C@H]1CC[C@H](C(=O)O[C@H]2CC=C3[C@H]4[C@H](CC[C@@]32C)[C@H]2CCC(=O)C=C2C[C@H]4C)CC1 [CDB-4327A, 7α-Methyl-14-dehydro-19-nortestosterone-17β-bucyclate] | surprising stimulation of ventral prostate size over the entire 20-week observation period | – | – | – |
| CCCCC1CCC(C(=O)O[C@H]2CC[C@H]3[C@@H]4CCC5=CC(=O)CC[C@]5(C)[C@H]4CC[C@]23C)CC1 (stereo partly drawn) [CDB-1781a, Testosterone bucyclate] | significantly less | 186 | 1.0 (assigned) | AUC of ventral prostate weight (FIG. 5) ([1]; 1.0 mg, ASV (aqueous suspending vehicle)): 683 |
| CCCC[C@H]1CC[C@H](C(=O)O[C@H]2CC[C@H]3[C@H]4[C@H](CC[C@]23C)[C@H]2CCC(=O)C[C@@H]2C[C@H]4C)CC1 [B, 7α-Methyl-5α-dihydro-19-nortestosterone-17β-bucyclate] | – | – | 1.2 | – |
| C[C@]12CC[C@H]3[C@@H](CCC4=CC(=O)CC[C@@]43C)[C@@H]1CC[C@@H]2O [CDB-111C, testosterone] | – | – | – | Androgenic activity Potency Ratio, subcutaneous [2]: 1.00 |
| CCCC[C@H]1CC[C@H](C(=O)O[C@H]2CC[C@H]3[C@H]4[C@H](CC[C@]23C)[C@H]2CCC(=O)C=C2C[C@H]4C)CC1 [A, 7α-Methyl-19-nortestosterone-17β-bucyclate] | – | – | 8.1^3 | – |
| CCCCC1CCC(C(=O)OC2CCCC3C4C(C)CC5=CC(=O)CCC5(C)C4CCC23C)CC1 [D, 7α-Methyl-D-homo-testosterone-17β-bucyclate] | – | – | 36.4-61.7^3 | – |
| C[C@@H]1CC2=CC(=O)CC[C@@H]2[C@@H]2[C@@H]1[C@@H]1CC[C@H](O)[C@@]1(C)C[C@@H]2C [CDB-1321D, 7α,11β-Dimethyl-17β-hydroxy-4-estren-3-one] | – | 166 | – | AUC of ventral prostate weight (FIG. 5) [1, 5]: 460 |
